Laboratory results reported in patent publication US20190328691A1, “ANTIBIOTIC THERAPY” (Boulos & Cooper Pharmaceuticals Pty Ltd, priority 2015, published 2019).
“And” between values parts separate entries of the source, which are not always exact repeats. Identical values can stand only once. Like-named read-outs stand apart in the source and are kept apart here.

Assays:
[1] = test system: Staphylococcus aureus (BAA-1717); assay: Checkerboard combination / MIC assay with S. aureus BAA-1717 (MRSA); type: cell-based
Protocol: (§1) Colonies were suspended in PBS. The absorbance of each suspension was measured with a spectrophotometer, and then the suspension was adjusted to 1×10^6 CFU/mL. The testing inoculum was prepared within 20 minutes before adding to wells of the test plate. Final cellular density in the checkerboard assays was 5×10^5 CFU/mL.
(§2) The combination effect of antibacterial substances administered together was evaluated by an in vitro checkerboard combination method with Staphylococcus aureus (ATCC 29213) and Staphylococcus aureus (BAA-1717). Ramizol and Chlopam were tested alone in 11 points by two-fold serial titration and in combination with different commercial antibiotics which were tested in a 7-point titration alone and in combination with Ramizol and Chlopam using the checkerboard technique as recommended by the Clinical & Laboratory Standards Institute (CLSI. Methods for Dilution In Antimicrobial Susceptibility Tests for Bacteria That Grow Aerobically; Approved Standard-Eighth Edition. CLSI document M07-A8 (ISBN 1-56238-689-1). Vol. 29 No. 2. Clinical and Laboratory Standards Institute, USA, 2009). The commercial antibiotics were also tested alone. Twenty-four checkerboard tests were performed.
(§3) The starting concentration of Ramizol, Chlopam, and the commercial antibiotics was four fold of the MIC. The testing range for each combination was described in the following summary tables.
(§4) Compound dilutions of Ramizol and Chlopam were performed in 100% DMSO and the final DMSO concentration in all test wells was 2%. Growth control wells also included 2% DMSO. CLSI protocol was followed for medium, inoculum preparation, and endpoint reading. The commercial antibiotics were dissolved and diluted in the CLSI specified diluent. The final inoculum count for each strain was 5×10^5 CFU/mL.
Each test substance was dissolved and diluted in 100% DMSO or specified solvent. Each test substance dilution (2 μL) was added to 96 μL broth CAMHB. CAMHB seeded with S. aureus BAA-1717 at 1×10^6 CFU/mL (100 μL) was then added to the plate to generate a final cell count at 5×10^5 CFU/mL.
(§5) Assay plates were incubated and MIC endpoints were read as described in the MIC assay. FIC (Fraction Inhibitory Concentration) and FIC Index (FICI) values for each test condition and the average of FICI values of all pairwise combinations were calculated to determine if synergy or antagonism existed between the two substances. The FIC index was determined by calculating the sum of the ratios of MICs for both substances. Arithmetically, the FIC Index of a combination of Substance 1 and Substance 2 was defined as following: FICI=Σ[FIC(Substance 1)+FIC(Substance 2)]=[(MIC of Substance 1 in combination/MIC of Substance 1 alone)+(MIC of Substance 2 in combination/MIC of Substance 2 alone)]. Synergy is defined as the FICI (Σ)≤0.5; additivity as FICI (Σ)>0.5 to ≤1; indifference as FICI (Σ)>1 to ≤4; antagonism is defined as the FICI (Σ)>4 (Zinner and Blaser, J. Journal of Antimicrobial Chemotherapy (1986), 17, 1-5; Amin, et al BMC Complementary & Alternative Medicine (2015), 15, 59; Zuo, et al. Molecules (2011), 16, 9819-9826).

[2] = test system: Staphylococcus aureus (ATCC 29213); assay: Checkerboard combination / MIC assay with S. aureus ATCC 29213; type: cell-based; conditions: S. aureus ATCC 29213; for MIC: Staphylococcus aureus, read-out: MIC of antibiotic alone
Protocol: as §1, §2, §3, §4
Cefepime, Daptomycin, Linezolid, Mupirocin, Oxacillin and Vancomycin were also tested alone. Each test substance was dissolved and diluted in 100% DMSO or specified solvent. Each test substance dilution (2 μL) was added to 96 μL broth CAMHB. CAMHB seeded with S. aureus ATCC 29213 at 1×10^6 CFU/mL (100 μL) was then added to the plate to generate a final cell count at 5×10^5 CFU/mL.
as §5

CO/N=C(\C(=O)N[C@@H]1C(=O)N2C(C(=O)[O-])=C(C[N+]3(C)CCCC3)CS[C@H]12)c1csc(N)n1 [Cefepime]
FICI of combination with Chlopam ([1]; Chlopam 0.001953 μg/mL + labelled antibiotic at MIC of same cell, S. aureus ATCC BAA-1717): 1.0
MIC of antibiotic in combination with Chlopam ([1]; Chlopam 0.001953 μg/mL, S. aureus ATCC BAA-1717): 256 µg/mL
FICI of combination with Chlopam ([1]; Chlopam 0.003906 μg/mL + labelled antibiotic at MIC of same cell, S. aureus ATCC BAA-1717): 1.0
MIC of antibiotic in combination with Chlopam ([1]; Chlopam 0.003906 μg/mL, S. aureus ATCC BAA-1717): 256 µg/mL
FICI of combination with Chlopam ([1]; Chlopam 0.0078125 μg/mL + labelled antibiotic at MIC of same cell, S. aureus ATCC BAA-1717): 1.0
MIC of antibiotic in combination with Chlopam ([1]; Chlopam 0.0078125 μg/mL, S. aureus ATCC BAA-1717): 256 µg/mL
FICI of combination with Chlopam ([1]; Chlopam 0.015625 μg/mL + labelled antibiotic at MIC of same cell, S. aureus ATCC BAA-1717): 1.0
MIC of antibiotic in combination with Chlopam ([1]; Chlopam 0.015625 μg/mL, S. aureus ATCC BAA-1717): 256 µg/mL
FICI of combination with Chlopam ([1]; Chlopam 0.03125 μg/mL + labelled antibiotic at MIC of same cell, S. aureus ATCC BAA-1717): 1.0
MIC of antibiotic in combination with Chlopam ([1]; Chlopam 0.03125 μg/mL, S. aureus ATCC BAA-1717): 256 µg/mL
FICI of combination with Chlopam ([1]; Chlopam 0.125 μg/mL + labelled antibiotic at MIC of same cell, S. aureus ATCC BAA-1717): 0.6
MIC of antibiotic in combination with Chlopam ([1]; Chlopam 0.125 μg/mL, S. aureus ATCC BAA-1717): 128 µg/mL
FICI of combination with Chlopam ([1]; Chlopam 0.5 μg/mL + labelled antibiotic at MIC of same line, S. aureus ATCC BAA-1717): 0.5
MIC of antibiotic in combination with Chlopam ([1]; Chlopam 0.5 μg/mL, S. aureus ATCC BAA-1717): 8 µg/mL
Effect of individual antibiotic combinations of lower concentrations ([1]; Chlopam and Cefepime: 0.25 and 64, 0.25 and 32, 0.25 and 16, 0.50 and 8 μg/mL, S. aureus ATCC BAA-1717): synergistic effect
FICI of combination with Ramizol ([1]; Ramizol 0.015625 μg/mL + labelled antibiotic at MIC of same cell, S. aureus ATCC BAA-1717): 1.0
MIC of antibiotic in combination with Ramizol ([1]; Ramizol 0.015625 μg/mL, S. aureus ATCC BAA-1717): 256 µg/mL
FICI of combination with Ramizol ([1]; Ramizol 0.03125 μg/mL + labelled antibiotic at MIC of same cell, S. aureus ATCC BAA-1717): 1.0
MIC of antibiotic in combination with Ramizol ([1]; Ramizol 0.03125 μg/mL, S. aureus ATCC BAA-1717): 256 µg/mL
FICI of combination with Ramizol ([1]; Ramizol 0.0625 μg/mL + labelled antibiotic at MIC of same cell, S. aureus ATCC BAA-1717): 1.0
MIC of antibiotic in combination with Ramizol ([1]; Ramizol 0.0625 μg/mL, S. aureus ATCC BAA-1717): 256 µg/mL
FICI of combination with Ramizol ([1]; Ramizol 0.125 μg/mL + labelled antibiotic at MIC of same line, S. aureus ATCC BAA-1717): 0.5
MIC of antibiotic in combination with Ramizol ([1]; Ramizol 0.125 μg/mL, S. aureus ATCC BAA-1717): 128 µg/mL
FICI of combination with Ramizol ([1]; Ramizol 0.25 μg/mL + labelled antibiotic at MIC of same cell, S. aureus ATCC BAA-1717): 0.6
MIC of antibiotic in combination with Ramizol ([1]; Ramizol 0.25 μg/mL, S. aureus ATCC BAA-1717): 128 µg/mL
FICI of combination with Ramizol ([1]; Ramizol 0.5 μg/mL + labelled antibiotic at MIC of same cell, S. aureus ATCC BAA-1717): 0.6
MIC of antibiotic in combination with Ramizol ([1]; Ramizol 0.5 μg/mL, S. aureus ATCC BAA-1717): 128 µg/mL
FICI of combination with Ramizol ([1]; Ramizol 1 μg/mL + labelled antibiotic at MIC of same line, S. aureus ATCC BAA-1717): 0.5
MIC of antibiotic in combination with Ramizol ([1]; Ramizol 1 μg/mL, S. aureus ATCC BAA-1717): 64 µg/mL
FICI of combination with Ramizol ([1]; Ramizol 2 μg/mL + labelled antibiotic at MIC of same line, S. aureus ATCC BAA-1717): 0.5 and 0.6
Effect of individual antibiotic combinations of lower concentrations ([1]; Ramizol and Cefepime: 0.125 and 128, 1 and 64, 2 and 8 μg/mL, S. aureus ATCC BAA-1717): synergistic effect
MIC ([1]; Staphylococcus aureus, ATCC BAA-1717 / BAA-1717, Table 4, checkerboard series with Chlopam, S. aureus ATCC BAA-1717, read-out: MIC of antibiotic alone): 256 µg/mL
MIC of antibiotic alone ([1]; Table 7, checkerboard series with Ramizol, S. aureus ATCC BAA-1717): 256 µg/mL
Effect of the combinations with Chlopam (by mean FICI) ([1]; labelled antibiotic + Chlopam, S. aureus BAA-1717): additive effect
mean FICI of combination with Chlopam ([1]; labelled antibiotic + Chlopam, mean of all pairwise combinations, S. aureus ATCC BAA-1717): 0.8
Effect of the combinations with Ramizol (by mean FICI) ([1]; labelled antibiotic + Ramizol, S. aureus BAA-1717): additive effect
mean FICI of combination with Ramizol ([1]; labelled antibiotic + Ramizol, mean of all pairwise combinations, S. aureus ATCC BAA-1717): 0.696
FICI of combination with Chlopam ([2]; Chlopam 0.003906 μg/mL + labelled antibiotic at MIC of same cell): 1.0
MIC of antibiotic in combination with Chlopam ([2]; Chlopam 0.003906 μg/mL): 4 µg/mL
FICI of combination with Chlopam ([2]; Chlopam 0.0078125 μg/mL + labelled antibiotic at MIC of same cell): 1.0
MIC of antibiotic in combination with Chlopam ([2]; Chlopam 0.0078125 μg/mL): 4 µg/mL
FICI of combination with Chlopam ([2]; Chlopam 0.015625 μg/mL + labelled antibiotic at MIC of same cell): 1.0
MIC of antibiotic in combination with Chlopam ([2]; Chlopam 0.015625 μg/mL): 4 µg/mL
FICI of combination with Chlopam ([2]; Chlopam 0.25 μg/mL + labelled antibiotic at MIC of same cell): 1.0
MIC of antibiotic in combination with Chlopam ([2]; Chlopam 0.25 μg/mL): 2 µg/mL
FICI of combination with Chlopam ([2]; Chlopam 0.5 μg/mL + labelled antibiotic at MIC of same cell): 1.0
MIC of antibiotic in combination with Chlopam ([2]; Chlopam 0.5 μg/mL): 0.125 µg/mL
FICI of combination with Ramizol ([2]; Ramizol 0.015625 μg/mL + labelled antibiotic at MIC of same cell): 1.0
MIC of antibiotic in combination with Ramizol ([2]; Ramizol 0.015625 μg/mL): 4 µg/mL
FICI of combination with Ramizol ([2]; Ramizol 0.03125 μg/mL + labelled antibiotic at MIC of same cell): 1.0
MIC of antibiotic in combination with Ramizol ([2]; Ramizol 0.03125 μg/mL): 4 µg/mL
FICI of combination with Ramizol ([2]; Ramizol 0.0625 μg/mL + labelled antibiotic at MIC of same cell): 1.0
MIC of antibiotic in combination with Ramizol ([2]; Ramizol 0.0625 μg/mL): 4 µg/mL
FICI of combination with Ramizol ([2]; Ramizol 0.125 μg/mL + labelled antibiotic at MIC of same cell): 1.0
MIC of antibiotic in combination with Ramizol ([2]; Ramizol 0.125 μg/mL): 4 µg/mL
FICI of combination with Ramizol ([2]; Ramizol 1 μg/mL + labelled antibiotic at MIC of same cell): 0.8
MIC of antibiotic in combination with Ramizol ([2]; Ramizol 1 μg/mL): 2 µg/mL
FICI of combination with Ramizol ([2]; Ramizol 2 μg/mL + labelled antibiotic at MIC of same cell): 0.8
MIC of antibiotic in combination with Ramizol ([2]; Ramizol 2 μg/mL): 1 µg/mL
FICI of combination with Ramizol ([2]; Ramizol 4 μg/mL + labelled antibiotic at MIC of same cell): 1.0
MIC of antibiotic in combination with Ramizol ([2]; Ramizol 4 μg/mL): 0.125 µg/mL
MIC ([2]; ATCC29213, Table 4, checkerboard series with Chlopam): 4 µg/mL
MIC ([2]; ATCC29213, Table 7, checkerboard series with Ramizol): 4 µg/mL
mean FICI of combination with Chlopam ([2]; labelled antibiotic + Chlopam, mean of all pairwise combinations): 1.1
Effect of the combinations with Ramizol (by mean FICI) ([2]; labelled antibiotic + Ramizol): additive effect
mean FICI of combination with Ramizol ([2]; labelled antibiotic + Ramizol, mean of all pairwise combinations): 1.0
